Patent US7771977B2, “Alkane polyol dehydrogenase” (National University Corporation Nara Institute of Science …, priority 2006, dated 2010)
Entries after “also recorded” stand apart in the source; their conditions may differ. Like-named read-outs stand apart in the source and are kept apart here.

Experiments:
[1] = system: alkane polyol dehydrogenase (purified enzyme); format: biochemical, Pichia ofunaensis
Description: The reaction solutions were prepared using plural substrates with varied concentrations. Each solution contained a substrate, 2 mM NAD^+, and an enzyme, and was allowed to react in a 100 mM potassium phosphate buffer solution (pH 8.0) at 25° C. Then, changes in absorbance (molar absorption coefficient 6,220 M^−1·cm^−1) at 340 nm due to the NADH formation were measured. 1 U is defined as an enzyme amount for catalyzing 1 μmol NADH formation per minute.
(§1) The alkane polyol dehydrogenase obtained in Example 1 was utilized to measure the enzyme activities in the following manner.
(§2) 1 U was defined as the amount of enzyme that catalyzes the formation of 1 μmol of NADH per minute.
(§3) Measurement was performed in the same manner as in the activity measurements described earlier in 4-1.
Such activity was measured by causing a reaction mixture containing 5 mM (R)-1,2-octanediol, 2 mM NAD^+ and enzyme to react in a 100 mM potassium phosphate buffer solution (pH 8.0) at 25° C., then observing the change, due to NADH formation, of absorbance (molecular absorption coefficient 6,220 M^−1 ·cm^−1) at 340 nm. 1 U was defined as the amount of enzyme that catalyzes the formation of 1 μmol of NADH per minute.

[2] = system: alkane polyol dehydrogenase expressed in E. coli HB101 (pSE-HOG); test: Substrate specificity, cell extract of transformant E. coli HB101 (pSE-HOG); format: biochemical, Pichia ofunaensis; settings: for Activity, E. coli HB101 (pSE-HOG): cell extract, 2 mM NAD+, pH 8.0, 25° C.; for dehydrogenation (oxidative) activity of E. coli HB101 (pSE-HOG), in words: Table 4
Description: The Escherichia coli HB101 strain containing the pSE-HOG was cultivated in LB medium containing ampicillin. When the absorbance at 600 nm was 0.5, 0.1 mM IPTG was added thereto. Six hours after the addition, cells were harvested by centrifugal separation.
The obtained cells were suspended in a cell disruption solution (100 mM potassium phosphate buffer solution (pH 8.0)). The cell bodies therein were disrupted using a mini bead beater (produced by BioSpec Products), then subjected to centrifugal separation for 10 minutes under an acceleration of 16,000 g. Thereby, the supernatant thereof as a cell extract was obtained.
as §2
(§4) The substrate specificity of the protein of the present invention was analyzed using the purified enzyme obtained in Example 1 and the transformant (E. coli HB101 (pSE-HOG)) obtained in Example 3. For comparison, the same analysis was conducted with respect to a transformant (E. coli HB101 (pSE420D)) that was produced in the same manner as for E. coli HB101 (pSE-HOG), except that the plasmid (pSE420D) in which the relevant enzyme gene was not inserted was used.
as §3

E. coli HB101 (pSE420D) = test: Substrate specificity, comparison transformant E. coli HB101 (pSE420D) without the enzyme gene; format: biochemical, Escherichia coli; settings: for Activity, E. coli HB101 (pSE-420D): comparison transformant, substrate 100 mM, 2 mM NAD+, pH 8.0, 25° C.
Description: as §2, §4, §3

[3] = system: alkane polyol dehydrogenase (purified enzyme); test: Reduction activity measurement with purified alkane polyol dehydrogenase (NADH reduction at 340 nm); format: biochemical, Pichia ofunaensis; settings: for reduction activity of the purified enzyme, in words: Table 3; for Reduction Activity: 0.2 mM NADH, pH 6.0, 25° C.
Description: The reaction solutions were prepared using plural substrates with varied concentrations. Each solution contained a substrate, 0.2 mM NADH, and an enzyme, and was allowed to react in a 100 mM potassium phosphate buffer solution (pH 6.0) at 25° C. Then, changes in absorbance (molar absorption coefficient 6,220 M^−1·cm^−1) at 340 nm due to the NADH reduction were measured. 1 U is defined as an enzyme amount for catalyzing 1 μmol NADH reduction per minutes.
as §1
1 U was defined as the amount of enzyme that catalyzes the reduction of 1 μmol of NADH per minute.

[4] = purified enzyme, substrate 100 mM, 2 mM NAD+, pH 8.0, 25° C.
[5] = purified enzyme, Tables 2 and 4

CC(O)C(C)O (stereo not drawn) [meso-2,3-Butanediol]
Oxidative Activity [1, 4]: 160 U/mg
Activity, E. coli HB101 (pSE-HOG) ([2]; substrate 100 mM): 1.17 U/mg
Activity, E. coli HB101 (pSE-420D) (E. coli HB101 (pSE420D)): <0.1 U/mg

CC(=O)CO [Acetol]
reduction activity of the purified enzyme, in words [3]: high reduction activity
Reduction Activity ([3]; substrate 100 mM): 64.9 U/mg

CCCC(=O)C(C)=O [2,3-Hexanedione]
reduction activity of the purified enzyme, in words [3]: high reduction activity
Reduction Activity ([3]; substrate 5 mM): 67.5 U/mg

CCC(=O)C(C)=O [2,3-Pentanedione]
reduction activity of the purified enzyme, in words [3]: high reduction activity
Reduction Activity ([3]; substrate 5 mM): 73.8 U/mg

CCCCCC(O)CO (stereo not drawn) [1,2-Heptanediol]
oxidative (dehydrogenation) activity of the purified enzyme, in words [1, 5]: well-oxidized
Oxidative Activity ([1]; purified enzyme, substrate 10 mM, 2 mM NAD+, pH 8.0, 25° C.): 27.8 U/mg

CCCCCCO [n-Hexanol]
oxidative (dehydrogenation) activity of the purified enzyme, in words [1, 5]: did not have oxidative activity

CC(O)C(C)O (stereo not drawn) [2,3-Butanediol]
oxidative (dehydrogenation) activity of the purified enzyme, in words [1, 5]: well-oxidized; also recorded: high dehydrogenation activity
Oxidative Activity [1, 4]: 50.0 U/mg
dehydrogenation (oxidative) activity of E. coli HB101 (pSE-HOG), in words [2]: high dehydrogenation activity

CCCC(C)=O [2-Pentanone]
Reduction Activity ([3]; substrate 100 mM): 3.71 U/mg

CCC(O)CO (stereo not drawn) [1,2-Butanediol]
oxidative (dehydrogenation) activity of the purified enzyme, in words [1, 5]: well-oxidized
Oxidative Activity [1, 4]: 61.0 U/mg

CCC(=O)CO [1-Hydroxy-2-butanone]
Reduction Activity ([3]; substrate 100 mM): 5.84 U/mg

CCCCO [1-Butanol]
oxidative (dehydrogenation) activity of the purified enzyme, in words [1]: did not have oxidative activity

CC(O)CC(C)O (stereo not drawn) [2,4-Pentanediol]
oxidative (dehydrogenation) activity of the purified enzyme, in words [1, 5]: only a weak oxidative activity
Oxidative Activity [1, 4]: 2.53 U/mg

CCCCCCC(C)O (stereo not drawn) [2-Octanol]
oxidative (dehydrogenation) activity of the purified enzyme, in words [1, 5]: no activity was observed

CCCCCO [1-Pentanol]
oxidative (dehydrogenation) activity of the purified enzyme, in words [1, 5]: did not have oxidative activity

OCC[C@@H](O)CO [(R)-1,2,4-Butanetriol]
oxidative (dehydrogenation) activity of the purified enzyme, in words [1, 5]: significant dehydrogenation activity
Oxidative Activity [1, 4]: 3.9 U/mg
dehydrogenation (oxidative) activity of E. coli HB101 (pSE-HOG), in words [2]: significant dehydrogenation activity
Activity, E. coli HB101 (pSE-HOG) ([2]; substrate 100 mM): 0.15 U/mg

CCC(=O)C(=O)CC [3,4-Hexanedione]
reduction activity of the purified enzyme, in words [3]: high reduction activity
Reduction Activity ([3]; substrate 5 mM): 32.8 U/mg

CCCO [1-Propanol]
oxidative (dehydrogenation) activity of the purified enzyme, in words [1]: did not have oxidative activity

CCC(C)=O [2-Butanone]
Reduction Activity ([3]; substrate 100 mM): 0.40 U/mg

OCc1ccccc1 [Benzyl alcohol]
oxidative (dehydrogenation) activity of the purified enzyme, in words [1, 5]: did not have oxidative activity

CCO [Ethanol]
oxidative (dehydrogenation) activity of the purified enzyme, in words [1]: did not have oxidative activity

CCC(C)O (stereo not drawn) [2-Butanol]
oxidative (dehydrogenation) activity of the purified enzyme, in words [1]: weak oxidative activity
Oxidative Activity ([1]; pH 8): <0.1 U/mg

CCCC(O)CO (stereo not drawn) [1,2-Pentanediol]
oxidative (dehydrogenation) activity of the purified enzyme, in words [1, 5]: well-oxidized
Oxidative Activity [1, 4]: 99.3 U/mg

CCCCCCC(O)CO (stereo not drawn) [1,2-Octanediol]
oxidative (dehydrogenation) activity of the purified enzyme, in words [1, 5]: well-oxidized
oxidative (dehydrogenation) activity of the purified enzyme, in words ([1]; purified enzyme, Tables 2 and 4, listed as (R,S)-1,2-octanediol): excellent dehydrogenation activity; also recorded: show an oxidative activity
Oxidative Activity ([1]; purified enzyme, substrate 5 mM, 2 mM NAD+, pH 8.0, 25° C.): 64.3 U/mg
dehydrogenation (oxidative) activity of E. coli HB101 (pSE-HOG), in words ([2]; listed as (R,S)-1,2-octanediol): excellent dehydrogenation activity; also recorded: show an oxidative activity
Activity, E. coli HB101 (pSE-HOG) ([2]; substrate 5 mM): 0.53 U/mg
dehydrogenation activity of E. coli HB101 (pSE420D), in words (E. coli HB101 (pSE420D); Table 4): does not show the dehydrogenation activity

CC(O)CCO (stereo not drawn) [1,3-Butanediol]
oxidative (dehydrogenation) activity of the purified enzyme, in words [1, 5]: only a weak oxidative activity
Oxidative Activity [1, 4]: 6.0 U/mg

CCCCCC[C@@H](O)CO [(R)-1,2-octanediol]
(R)-1,2-octanediol dehydrogenase activity per 1 mg of the purified protein ([1]; per 1 mg purified protein, 5 mM substrate, 2 mM NAD+, pH 8.0, 25° C.): ≥ 60 U

CC(C)O [Isopropanol]
oxidative (dehydrogenation) activity of the purified enzyme, in words [1, 5]: weak oxidative activity
Oxidative Activity [1, 4]: 1.45 U/mg

CC(O)CO (stereo not drawn) [1,2-Propanediol]
oxidative (dehydrogenation) activity of the purified enzyme, in words [1, 5]: well-oxidized; also recorded: high dehydrogenation activity
Oxidative Activity [1, 4]: 71.7 U/mg
dehydrogenation (oxidative) activity of E. coli HB101 (pSE-HOG), in words [2]: high dehydrogenation activity

C[C@H](O)CO [(S)-1,2-Propanediol]
Oxidative Activity [1, 4]: 36.4 U/mg
Activity, E. coli HB101 (pSE-HOG) ([2]; substrate 100 mM): 0.29 U/mg
Activity, E. coli HB101 (pSE-420D) (E. coli HB101 (pSE420D)): <0.1 U/mg

CC(=O)C(C)O (stereo not drawn) [3-Hydroxy-2-butanone]
Oxidative Activity [1, 4]: 0.55 U/mg
reduction activity of the purified enzyme, in words [3]: high reduction activity
Reduction Activity ([3]; substrate 100 mM): 102 U/mg

C[C@@H](O)[C@@H](C)O [(2R,3R)-2,3-Butanediol]
Oxidative Activity [1, 4]: 82.1 U/mg
Activity, E. coli HB101 (pSE-HOG) ([2]; substrate 100 mM): 0.72 U/mg

CO [Methanol]
oxidative (dehydrogenation) activity of the purified enzyme, in words [1, 5]: did not have oxidative activity

CCCC(=O)CC [3-Hexanone]
Reduction Activity ([3]; substrate 10 mM): 1.39 U/mg

C[C@H](O)[C@H](C)O [(2S,3S)-2,3-Butanediol]
Oxidative Activity [1, 4]: 19.4 U/mg
Activity, E. coli HB101 (pSE-HOG) ([2]; substrate 100 mM): 0.12 U/mg

O=C1CCCCC1 [Cyclohexanone]
Reduction Activity ([3]; substrate 10 mM): 0.28 U/mg

OCC[C@H](O)CO [(S)-1,2,4-Butanetriol]
oxidative (dehydrogenation) activity of the purified enzyme, in words [1, 5]: no activity was seen
dehydrogenation (oxidative) activity of E. coli HB101 (pSE-HOG), in words [2]: no activity was seen

C[C@@H](O)CO [(R)-1,2-Propanediol]
Oxidative Activity [1, 4]: 89.2 U/mg
Activity, E. coli HB101 (pSE-HOG) ([2]; substrate 100 mM): 0.80 U/mg
Activity, E. coli HB101 (pSE-420D) (E. coli HB101 (pSE420D)): <0.1 U/mg

CCCCCC(C)O (stereo not drawn) [2-Heptanol]
oxidative (dehydrogenation) activity of the purified enzyme, in words [1, 5]: no activity was observed

CCCCC(O)CO (stereo not drawn) [1,2-Hexanediol]
oxidative (dehydrogenation) activity of the purified enzyme, in words [1, 5]: well-oxidized
Oxidative Activity [1, 4]: 38.4 U/mg

CC(O)CCC(C)O (stereo not drawn) [2,5-Hexanediol]
oxidative (dehydrogenation) activity of the purified enzyme, in words [1, 5]: only a weak oxidative activity
Oxidative Activity [1, 4]: 0.77 U/mg
